Laboratory results: US20190314345A1, “CALCINEURIN INHIBITOR AND NON-STEROIDAL ANTI-INFLAMMATORY DRUG TO REDUCE RISK OF POST-IMAGING PANCREATITIS” (UNIVERSITY OF PITTSBURGH - OF THE COMMONWEALTH SYSTEM OF …, priority 2016, published 2019)

Key:
[1] = system: AR42J cells; experiment: Ca2+ signals (Fluo-4AM) in AR42J cells; format: cell-based; conditions: U73122 5 μM, 2-APB 100 μM
Description: FIG. 7A-7H. […] (A) Summation of whole cell tracings from AR42J cells loaded with Fluo-4AM and perifused with RC (iohexol; 10-25%). (B, D) Quantification of amplitude and area under the curve. (C) RC (25%)-induced acinar cell Ca^2+ signals were prevented by the PLC inhibitor U73122 (5 μM) and the IP3R inhibitor 2-APB (100 μM). (n=20-30 cells per condition). *, # P<0.05 relative to 10% RC or RC alone, respectively. AR42J cells were infected with Ad-NFAT-luciferase and stimulated with RC at (E) increasing concentrations. […] (n=3). *, #, P<0.05, relative to the control or RC alone, respectively.
Acinar cells were loaded at room temperature with the high-affinity Ca^2+-sensing dye Fluo-4AM (Kd=300 nM; Invitrogen). Acinar cells were plated on acid-washed glass coverslips and then mounted on a perifusion chamber. Thereupon, they were stimulated at room temperature with varying concentrations of RC (17-50%) diluted in HEPES buffer. Carbachol (1 mM) was given at the end of each experiment to confirm that the cells were intact and could mobilize intracellular Ca^2+ stores. A Zeiss LSM710 laser scanning confocal microscope was used with a […], 1.4 numerical aperture objective. […] Fluorescence from individual acinar cells was recorded. Analysis of recordings was performed using ImageJ software (NIH, Bethesda, Md.), and mean fluorescence over time in each region was graphed.

[2] = system: calcineurin; experiment: NFAT-luciferase activity assay in mouse primary acinar cells; format: cell-based
Description: (§1) Acinar cells were infected with Ad-NFAT-luciferase following a previously described procedure^10, 15, 16. The construct includes a luciferase gene placed downstream of an IL-4 promoter which contains nine tandem NFAT binding sites^10. Acinar cells were incubated with the NFAT-driven luciferase adenovirus for 1.5 hr prior to stimulation. All of the stated inhibitors were added for 30 min prior to stimulation with RC. NFAT-luciferase was measured using the luciferase assay system. Briefly, cells were spun at 1,000 rpm for 5 min, washed with PBS, and lysed using reporter lysis 5× buffer (Promega #E397A, Madison, Wis.). Samples were vortexed and spun at 12,000 g for 2 min. Supernatant was plated, and luminescence was measured using a Synergy H1 plate reader (BioTek, Winooski, Vt.) and normalized to total protein.

[3] = system: calcineurin; experiment: NFAT-luciferase activity assay in AR42J cells; format: cell-based; conditions: for effect on RC (6%)-induced NFAT-luciferase activity: pretreatment, FK506 24 μM, CsA 16 μM, U73122 5 μM, 2-APB 100 μM, BAPTA 64 μM
Description: as §1

[4] = system: NF-κB; experiment: NF-κB-luciferase activity assay in AR42J cells; format: cell-based; conditions: for effect on RC-induced NF-κB luciferase levels: U73122 5 μM, 2-APB 100 μM, BAPTA 64 μM
Description: AR42J cells were differentiated towards an acinar phenotype by administering dexamethasone (100 nM) for 48-72 hr^17. AR42J cells were infected with Ad-NF-κB luciferase 16 h prior to stimulation using a previously described method^12. Following a wash with DMEM/F12 medium, acinar cells were evenly distributed in a 48-well plate and incubated for 30 min at 37° C. They were incubated with RC at varying concentrations and times. NF-κB-luciferase was measured using a commercially available luciferase assay (Promega, Madison, Wis.). Briefly, cells were spun at 1,000 rpm for 5 min, washed with PBS, and lysed using reporter lysis 5× buffer (Promega, catalog no. E397A). Samples were vortexed and spun at 12,000×g for 2 min. The supernatant was plated, and luminescence was measured using a Synergy H1 plate reader (BioTek, Winooski, Vt.) and normalized to […].

[5] = system: primary acinar cells; experiment: Cell necrosis assay (propidium iodide uptake) in primary acinar cells; format: cell-based, mouse; conditions: for effect on RC (12%)-induced acinar cell injury (PI uptake): 6 hr incubation, U73122 5 μM, 2-APB 100 μM, BAPTA 64 μM, IKK-2 20 μM, FK506 24 μM, CsA 16 μM
Description: Acinar cells were incubated in a 48-well plate with 50 μg/ml of propidium iodide (PI) for 30 min prior to addition of RC. Fluorescence was measured at 536 nm excitation and 617 nm emission wavelengths over time a time course of up to 6 hr. Fluorescence was measured after cell lysis with 0.5% Triton-X 100 was used to normalize the results relative to total DNA.

[6] = system: calcineurin; experiment: NFAT-luciferase activity assay in human acinar cells; format: cell-based
Description: as §1

[7] = high-affinity Ca2+-sensing dye; cited from earlier work
[8] = system: PEP model in mice; experiment: Intra-ductal RC infusion PEP model in mice: histological severity, serum amylase; format: in vivo, mouse
Description: The procedure for retrograde infusion into the CBD and pancreatic duct has been described before^14. Briefly, Swiss Webster mice were anesthetized with isoflurane. A midline incision was made to reveal the abdominal cavity. The duodenum was flipped to reveal its distal side and held in place by ligatures. […] needle was inserted through the anti-mesenteric aspect of the duodenum to cannulate the CBD. A small bull dog clamp was applied to the distal CBD (near the duodenum) to prevent back flow of the infusate into the duodenal lumen and to hold the cannula in place. A larger bull dog clamp was applied to the proximal CBD (near the liver) to prevent infusion into the liver and thus to direct flow to the pancreatic duct. Total volumes of 50-100 μl of iohexol, iopamidol, or normal saline (NS) were infused at 10-20 μl per min for 5 min using a P33 perfusion pump (Harvard Apparatus, Holliston, Mass.). Upon completion of the infusion, the bull dog clamps were released. The exterior abdominal wound was closed using 7 mm wound clips, and a single injection of buprenorphine (0.075 mg/kg) was given immediately after the surgery. Mice recovered on a heating pad for 30 min after the procedure. They were given free access to food and water after the surgery. The pancreas, duodenum, and spleen were fixed at room temperature for 24 hr in 4% paraformaldehyde. Paraffin-embedded sections were stained with hematoxylin an eosin (HE) and graded using a 20× objective over 10 separate fields in a blinded fashion. Pancreas tissue was graded for edema, inflammatory infiltrate, and necrosis as described by Wildi et al.^67. Whole blood samples were centrifuged at 1500×g for 5 min at 4° C. Serum amylase was measured using a Phadebas kit (Amersham Pharmacia, Rochester N.Y.) as previously described^68.

[9] = system: mouse pancreatic acinar cells; experiment: Ca2+ signals (Fluo-4AM) in mouse pancreatic acinar cells; format: cell-based; conditions: 25% and 33% RC; peak-plateau Ca2+ waves
Description: Acinar cells were loaded at room temperature with the high-affinity Ca^2+-sensing dye Fluo-4AM (Kd=300 nM; Invitrogen). Acinar cells were plated on acid-washed glass coverslips and then mounted on a perifusion chamber. Thereupon, they were stimulated at room temperature with varying concentrations of RC (17-50%) diluted in HEPES buffer. Carbachol (1 mM) was given at the end of each experiment to confirm that the cells were intact and could mobilize intracellular Ca^2+ stores. A Zeiss LSM710 laser scanning confocal microscope was used with a […], 1.4 numerical aperture objective. The dye was excited at 488 nm wavelength, and emission signals of >515 nm were collected every 2 sec. Fluorescence from individual acinar cells was recorded. Analysis of recordings was performed using ImageJ software (NIH, Bethesda, Md.), and mean fluorescence over time in each region was graphed.
Groups of pancreatic acinar cells were isolated as previously described 26, 69 with minor modifications. Briefly, the pancreas was removed, and then minced for 5 min in buffer containing 20 mM HEPES (pH 7.4), 95 mM NaCl, 4.7 mM KCl, 0.6 mM MgCl2, 1.3 mM CaCl2=, 10 mM glucose, and 2 mM glutamine, plus 1% BSA, 1×MEM nonessential amino acids (GIBCO/BRL), 200 units/ml type-4 collagenase (Worthington, Freehold, N.J.), and 1 mg/ml soybean trypsin inhibitor. The tissue was incubated for 30 min at 37° C. with shaking at 90 rpm. […]

[10] = system: pancreatic acinar cells; experiment: ATP level measurements in acinar cells; format: cell-based, mouse; conditions: RC, concentration dependent
Description: Following isolation, pancreatic acinar cells were cultured in DMEM/F12 Medium (0.5 ml/well of a 48-well plate) at 37° C. water bath and treated with RC±FK506. Cells were collected at indicated time points and lysed in 100 lysis buffer (100 mM Tris pH 7.75, 4 mM EDTA). ATP levels were measured from 20 μl aliquots of acinar cell lysates using the ENLITEN luciferase/luciferin reagent (Promega catalog no. FF2021).

[11] = system: pancreatic NF-κB; experiment: Imaging pancreatic NF-κB bioluminescence in vivo; set-up: species or system mouse; conditions: 4 hr after surgery, region of the pancreas
Description: An AAV6-NF-κB-luciferase reporter was constructed, expanded in HEK293 cells, and purified as previously described^18-20, 39. A volume of 100 μl of virus (10^12 GCP/ml) was infused into the pancreaticobiliary duct at a rate of 10 μl/min using the same technique of RC infusion described above and recently published^21, 39. After a 5-week recovery from the surgery, mice underwent PEP induction with or without FK506 treatment. At varying time points after the surgery, ranging from 2 to 36 hr, bioluminescence signals were obtained by first giving a subcutaneous injection of luciferin (150 μg/g body weight) in the scruff of the neck 15 min before the start of imaging. The mice were briefly anesthetized with isoflurane and placed in the supine position in a bioluminescent imaging chamber (IVIS spectrum imager; Perkin Elmer, Waltham, Mass.) for 3-10 min. Average pixel intensity was measured from a pancreatic region of interest (in the upper abdomen). Raw time points from each mouse were normalized to its individual baseline intensity at time zero.

[12] = varying concentrations of iopamidol

SMILES: NCCOB(c1ccccc1)c1ccccc1 [2-APB]
- effect on RC (25%)-induced acinar cell Ca2+ signals [1]: prevented
- reduction of RC-induced luciferase rise ([2]; 2-APB 100 μM, P<0.05): 47%
- effect on RC (6%)-induced NFAT-luciferase activity [3]: prevented
- effect on RC-induced NF-κB luciferase levels [4]: reduced
- effect on RC (12%)-induced acinar cell injury (PI uptake) [5]: prevented

SMILES: CC(=O)OCOC(=O)CN(CC(=O)OCOC(C)=O)c1ccccc1OCCOc1ccccc1N(CC(=O)OCOC(C)=O)CC(=O)OCOC(C)=O [BAPTA-AM]
- effect on RC-induced rise in NFAT-luciferase ([2]; 30 min pre-treatment, FK506 24 μM, CsA 16 μM, BAPTA-AM 64 μM): completely reduced
- effect on RC (25%)-induced NFAT-luciferase activity [6]: prevented
- effect on RC (6%)-induced NFAT-luciferase activity [3]: prevented
- effect on RC-induced NF-κB luciferase levels [4]: reduced
- effect on RC (12%)-induced acinar cell injury (PI uptake) [5]: prevented

SMILES: CC(=O)OCOC(=O)CN(CC(=O)OCOC(C)=O)c1ccc(C)cc1OCCOc1cc(-c2c3cc(F)c(=O)cc-3oc3cc(OCOC(C)=O)c(F)cc23)ccc1N(CC(=O)OCOC(C)=O)CC(=O)OCOC(C)=O [Fluo-4AM]
- Kd [7]: 0.3 µM

SMILES: CCCCCCCCCCC[C@@H](C[C@@H]1OC(=O)[C@H]1CCCCCC)OC(=O)[C@H](CC(C)C)NC=O [Orlistat]
- effect of pretreatment on RC-induced NF-κB activation ([4]; NAC 2-12 mM, Orlistat 50-100 μM, RC 16%): did not significantly reduce

SMILES: CC(=O)N(CC(O)CO)c1c(I)c(C(=O)NCC(O)CO)c(I)c(C(=O)NCC(O)CO)c1I (stereo not drawn) [RC, iohexol]
- severity of pancreatitis at pH 6 compared to pH 7 ([8]; RC buffered with 10 mM HEPES, pH clamped at 6): no increased severity
- increase in histological severity above the intra-ductal NS sham control ([8]; intra-ductal RC, doubled rate and volume, 24 hr after procedure): 59%
- serum amylase increase ([8]; intra-ductal RC, 6 hr post-procedure): at least 50%
- Ca2+ signal amplitude above baseline [9]: 400%
- increase in NF-κB luciferase above baseline ([4]; 25% RC for 10 min, followed by washout): 5 fold
- increase in NF-κB luciferase above baseline ([4]; 25% RC for 60 min, P<0.05): 58 fold
- increase in NF-κB luciferase above baseline ([4]; 25% RC for 90 min, P<0.05): 59 fold
- increase in NF-κB luciferase above baseline ([4]; 25% RC for 120 min, P<0.05): 112 fold
- rise in NF-κB ([4]; at 350 mOsm/L): 300 fold
- PI uptake ([5]; RC exposure for 6 hr): concentration-dependent increase
- ATP levels [10]: depletion
- peak in NF-κB luciferase compared to NS sham [11]: 13 fold

SMILES: COc1ccc2c(c1)CC[C@@H]1[C@@H]2CC[C@]2(C)[C@@H](NCCCCCCN3C(=O)C=CC3=O)CC[C@@H]12 [U73122]
- effect on RC (25%)-induced acinar cell Ca2+ signals [1]: prevented
- effect on RC (6%)-induced NFAT-luciferase activity [3]: prevented
- effect on RC-induced NF-κB luciferase levels [4]: reduced
- effect on RC (12%)-induced acinar cell injury (PI uptake) [5]: prevented

SMILES: COc1ccc2c(c1)c(CC(=O)O)c(C)n2C(=O)c1ccc(Cl)cc1 [indomethacin]
- effect of FK506 compared with therapeutic indomethacin on RC-induced pancreatitis ([8]; FK506 1 mg/kg, indomethacin 7 mg/kg IP after RC infusion): as robust

SMILES: C[C@H](O)C(=O)Nc1c(I)c(C(=O)NC(CO)CO)c(I)c(C(=O)NC(CO)CO)c1I [iopamidol]
- induction of pancreatitis ([8]; intra-ductal infusion, 24 hr): induces pancreatitis
- NFAT activation [3, 12]: concentration-dependent
- NF-κB activation [4, 12]: concentration-dependent

SMILES: OC[C@@H](O)[C@@H](O)[C@H](O)[C@H](O)CO [mannitol]
- NF-κB increase at equimolar concentrations ([4]; osmolality control, equimolar to RC): failed to cause an increase
